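How tested: cells in 96-well plates exposed to compound for 48 hours at five concentrations. Here, GI50 denotes the concentration required for 50% inhibition of growth. TGI: concentration producing complete growth inhibition.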 Where a SMILES comes first, the peptide text is derived from it. The star is where a group is joined. Palmitoyl = CCCCCCCCCCCCCCCC(=O)*
How the values were obtained:
Experiment in all cases: inhibition of tumour cell growth, NCI panel, 48 h
[1] = test system: 786-0 renal
[2] = test system: HCT-15 colon
[3] = test system: KM12 colon
[4] = test system: M14 melanoma
[5] = test system: NCI-H23 lung
[6] = test system: RPMI-8226 leukemia
[7] = test system: SNB-19 CNS
[8] = test system: SNB-75 CNS
[9] = test system: T-47D breast
[10] = test system: SR leukemia

| Structure (SMILES) | TGI [1] [µM] | TGI [2] [µM] | TGI [3] [µM] | TGI [4] [µM] | TGI [5] [µM] | TGI [6] [µM] | TGI [7] [µM] | TGI [8] [µM] | TGI [9] [µM] | GI50 [3] [µM] | GI50 [4] [µM] | GI50 [5] [µM] | GI50 [6] [µM] | GI50 [7] [µM] | GI50 [8] [µM] | GI50 [10] [µM] | TGI [10] [µM] | GI50 [9] [µM] |
| --- | --- | --- | --- | --- | --- | --- | --- | --- | --- | --- | --- | --- | --- | --- | --- | --- | --- | --- |
| O=C(CN1C(=O)CC(c2ccccc2)(c2ccccc2)C1=O)N1CCN(CCO)CC1 | > 100 | > 100 | > 100 | > 100 | > 100 | > 100 | > 100 | > 100 | > 100 | – | – | – | – | – | – | – | – | – |
| Cc1ccsc1/C=N/Nc1cnccn1 | > 100 | > 100 | > 100 | > 100 | > 100 | > 100 | > 100 | > 100 | > 100 | – | – | – | – | – | – | – | – | – |
| CCCCCCCCCCCCCCCC(=O)N1CCCC1C(=O)NCC(=O)NC(Cc1ccccc1)C(=O)N1CCCC1C(=O)NC(CO)C(=O)NC(Cc1ccc(O)cc1)C(=O)NC(CCCCN)C(=O)NC(CC(C)C)C(=O)NC(CCCN=C(N)N)C(=O)N1CCCC1C(=O)NCC(N)=O (configuration not stated) (Palmitoyl-PGFPSYKLRPG-NH2; configuration not given here) | – | – | 12.7 | 27.3 | 36.6 | 29.3 | 55.5 | 49.3 | 48.5 | 2.28 | 14.2 | 18.7 | 11.6 | 25.7 | 21.7 | 16.5 | 44.9 | 17.9 |
| Cc1cc(C)nc(NC(=S)Nc2ccc([N+](=O)[O-])cc2)c1 | > 100 | > 100 | > 100 | – | > 100 | > 100 | > 100 | > 100 | > 100 | – | – | – | – | – | – | – | > 100 | – |
| CN1Cc2c(nc(-c3ccccc3)c[n+]2[O-])N(C)C1 | > 100 | > 100 | > 100 | > 100 | > 100 | > 100 | > 100 | > 100 | – | – | – | – | – | – | – | – | – | – |
| O=C1NC(O)CCN1C1OC(CO)C(O)C1O (configuration not stated) | – | > 250 | > 250 | – | > 250 | > 250 | > 250 | > 250 | – | – | – | – | – | – | – | – | – | – |
| CC(C(=O)COCc1ccccc1)P1(=O)OC(C)(C)CN1C(C)(C)C (configuration not stated) | > 100 | > 100 | > 100 | > 100 | > 100 | > 100 | – | > 100 | > 100 | – | – | – | – | – | – | – | – | – |
| O=C1C(=Nc2ccc(Nc3ccccc3)cc2)Oc2ccccc21 | 3.37 | 13.2 | 4.03 | 5.38 | 3.93 | – | 8.25 | 8.52 | 9.57 | – | – | – | – | – | – | – | 4.71 | – |
| O=C1c2cccc3cccc(c23)C(=O)N1CCCNCCCCNCCCNCCCN1C(=O)c2cccc3cccc(c23)C1=O | 1.36 | 28.1 | 1.83 | 3.64 | 1.72 | – | 1.58 | 1.46 | – | – | – | – | – | – | – | – | – | – |
| C=CC1(C)CC(=O)C2(O)C(C)(O1)C(OC(C)=O)C(O)C1C(C)(C)CCC(O)C12C (configuration not stated) | – | > 150 | > 150 | – | > 150 | 120 | > 150 | > 150 | – | 2.37 | – | – | > 57.2 | – | 4.13 | – | – | – |
| Nc1ncc2c(n1)-c1ccccc1OC2N1CCCC1 (configuration not stated) | > 100 | > 100 | > 100 | > 100 | > 100 | > 100 | > 100 | > 100 | – | – | – | – | – | – | – | – | > 100 | – |
| COc1ccc(CC(N)=O)cc1OC | – | > 1250 | > 1250 | – | > 1250 | > 1250 | > 1250 | > 1250 | – | – | – | – | – | – | – | – | – | – |
| Cn1c2ccccc2c2c(=S)c3ccccc3ccc21 | > 100 | > 100 | > 100 | > 100 | > 100 | – | > 100 | > 100 | > 100 | – | – | – | – | – | – | – | > 100 | – |
| C[C@@H]1CC[C@H]2[C@H]1[C@H]1[C@@H](CC[C@]2(C)N=C=S)C1(C)C | – | 64.6 | 40 | 78.1 | 94.3 | 43.4 | – | > 100 | > 100 | – | – | – | – | – | – | – | 47 | – |
| CN1CC[C@]2(c3cccc(O)c3)CC(=O)/C(=C/c3ccccc3)[C@@H]1C2 | 7.12 | 4.93 | 11.4 | 12.1 | 36.8 | 4.84 | 18.2 | 5.27 | – | – | – | – | – | – | – | – | 8.68 | – |
| O=C1/C(=C/c2ccc(Cl)cc2)CCCc2ccccc21 | 32.4 | 27.7 | 28.5 | 28.9 | 60.5 | 69 | 43.6 | > 100 | – | – | – | – | – | – | – | – | 37 | – |
| COc1cc(C2c3cc4c(cc3[C@@H](Nc3ccccc3)C3COC(=O)[C@H]23)OCO4)cc(OC)c1O (some centres not stated) | – | 2.43 | 4.69 | – | 3.01 | 2.23 | 11.3 | 7.97 | – | – | – | – | – | – | – | – | – | – |
| N#CC(c1ccccc1)N(CCOCCOCCN(C(=O)c1ccccc1)C(C#N)c1ccccc1)C(=O)c1ccccc1 (configuration not stated) | > 100 | > 100 | > 100 | > 100 | > 100 | – | > 100 | > 100 | 67.4 | – | – | – | – | – | – | – | – | – |
| CC(C)C1=CC23CCC4C(C)(C(=O)O)CCCC4(C)C2CC1C1C(=O)N(CCCCCCN2C(=O)C4C5CC6C7(C)CCCC(C)(C(=O)O)C7CCC6(C=C5C(C)C)C4C2=O)C(=O)C13 (configuration not stated) | – | 30.4 | 23.9 | 27.5 | 14.9 | > 100 | 34.8 | – | 41.5 | – | – | – | – | – | – | – | 34.1 | – |
| CC(C)(C)c1ccc2c(c1)C#Cc1cc3c(cc1OCCCO2)C#Cc1cc(C(C)(C)C)ccc1OCCCO3 | > 100 | 5.92 | > 100 | > 100 | 4.54 | > 100 | > 100 | – | > 100 | – | – | – | – | – | – | – | – | – |
| CCOC(=O)/C=C1/C(CCCOCc2ccccc2)C2CCCC23CC2(CCN13)OCCO2 (configuration not stated) | – | 51.5 | 58 | – | 43.8 | 25 | > 100 | 9.41 | – | – | – | – | – | – | – | – | – | – |
| O=C(NN1C(=O)CS(=O)(=O)C1c1ccc(C(F)(F)F)cc1)c1ccncc1 (configuration not stated) | – | > 100 | > 100 | > 100 | > 100 | > 100 | > 100 | > 100 | – | – | – | – | – | – | – | – | > 100 | – |
| CC(C)(CO)CNc1nc(N)nc(Cl)c1/C=N/O | > 100 | > 100 | > 100 | – | > 100 | > 100 | – | > 100 | 38.9 | – | – | – | – | – | – | – | > 100 | – |
